Measured values: article PMC12516498, “Enzymatic, cell-based, and in silico evaluation of di-substituted aminomethyl-1,2,3-triazole–cinamamide hybrids as mushroom tyrosinase inhibitors” (RSC Advances, 2025)

Assays:
[1] = DPPH free radical-scavenging assay; conditions: 200 µM compound, DPPH 110 µM, 30 min
Procedure: As described previously, radical-scavenging activity was assessed using the 2,2-diphenyl-1-picrylhydrazyl (DPPH) assay. Briefly, the mixture of different concentrations of the compounds and DPPH methanolic solution (110 µM) was shaken in the dark at room temperature for 30 min. The mixture absorbance was measured at 517 nm. Quercetin was used as the positive control.[25]

tyrosinase = conditions: in Fig. 1; 13–15; read-out: IC50 against Tyrosinase; cited from earlier work
mushroom tyrosinase = mushroom tyrosinase (Agaricus bisporus, UniProt C7FF04); assay: Enzyme kinetic study / determination of the inhibition type (Lineweaver–Burk); type: biochemical; conditions: Lineweaver–Burk plot: Km increased, Vmax unchanged
Sequence of mushroom tyrosinase (C7FF04 2-392): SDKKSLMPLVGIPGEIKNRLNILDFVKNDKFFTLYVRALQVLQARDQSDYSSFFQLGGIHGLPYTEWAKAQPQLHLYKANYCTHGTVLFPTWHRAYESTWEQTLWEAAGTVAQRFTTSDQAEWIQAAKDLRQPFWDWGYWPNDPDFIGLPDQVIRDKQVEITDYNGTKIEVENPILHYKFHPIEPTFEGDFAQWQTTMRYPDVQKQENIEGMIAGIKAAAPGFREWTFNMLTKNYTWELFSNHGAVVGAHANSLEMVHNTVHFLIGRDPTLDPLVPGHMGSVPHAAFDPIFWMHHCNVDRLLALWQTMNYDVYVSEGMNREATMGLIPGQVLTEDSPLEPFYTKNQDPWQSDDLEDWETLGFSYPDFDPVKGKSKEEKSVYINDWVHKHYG
Procedure: The substrate (L-DOPA) concentrations ranged from 0.5 to 2.8 mM according to the previously reported procedures.[24]

[2] = MTT assay for cell viability; type: cell-based, murine; conditions: mouse, B16F10 melanoma cells, MTT, 72 h, read-out: % Viability ± SE
Procedure: (§1) The cytotoxic activity of all derivatives was determined using the 3-(4,5-dimethylthiazol-2-yl)-2,5-diphenyltetrazolium bromide (MTT) assay. B16F10 were obtained from the Pasteur Institute of Iran (https://en.pasteur.ac.ir/). Cells (at a density of 25 000 cells per ml) were grown at 37 °C in the presence of CO2 5% in DMEM (Gibco BRL, Grand Island, NY, USA), 10% fetal bovine serum (FBS, Gibco BRL). Next, cells were seeded in a 96-well plate and incubated at 37 °C with the derivative at different concentrations for 72 h. Following treatment, cells were incubated with MTT (0.5 mg mL^−1) for 3 h. The MTT-containing medium was then removed, and 100 µL of DMSO was added to each well, mixed thoroughly with a 10-minute shake to dissolve the formazan crystals. The absorbance of each well was measured at 540 nm.[28]

B16F10 melanoma cells [3] = assay: MTT assay for cell viability; type: cell-based, murine; conditions: concentrations ≤100 µM
Procedure: as §1

B16F10 melanoma cells [4] = assay: Melanin content assay; type: cell-based, murine; conditions: α-MSH 100 nM, 70 µM compound, 48 h, untreated control 92 µg mL^−1
Procedure: The melanin content assay was performed according to previously reported protocols with minor modifications. Briefly, B16F10 cells were seeded in 12-well plates at a density of 50 000 cells per well. After 24 hours of incubation, 100 nM α-MSH was added to each well, followed by the addition of compound 9i five hours later. The plates were then incubated for an additional 48 hours. Subsequently, the cells were washed twice with PBS and harvested using […]. The cell pellets were dissolved in 200 µL of 1 N NaOH containing 10% DMSO and incubated at 80 °C for 2 hours to solubilize the melanin. The absorbance of the resulting supernatant was measured at […] using a microplate reader. The melanin content was quantified using a calibration curve constructed from synthetic melanin standards, measured at 405 nm. Kojic acid was used as a positive control for comparison.[29]

In the case of COc1ccc(C=CC(=O)NCc2cn(CC(=O)Nc3ccc(F)cc3)nn2)cc1 [Compound 9m, N-((1-(2-((4-Fluorophenyl)amino)-2-oxoethyl)-1H-1,2,3-triazol-4-yl)methyl)-3-(4-methoxyphenyl)acrylamide], the “DPPH radical scavenging % Inhibition at 200 µM” value [1] is reported as 60.18 ± 6.94%.
In the case of NC(=S)N/N=C/c1ccc(OCc2cn(Cc3ccc(F)cc3)nn2)cc1 [D], the IC50 (tyrosinase) is given as 220 nM.
In the case of COc1ccc(NC(=O)Cn2cc(CNC(=O)C=Cc3ccc(Cl)cc3)nn2)cc1 [Compound 9k, 3-(4-Chlorophenyl)-N-((1-(2-((4-methoxyphenyl)amino)-2-oxoethyl)-1H-1,2,3-triazol-4-yl)methyl)acrylamide], the “DPPH radical scavenging % Inhibition at 200 µM” value [1] is reported as 55.28 ± 0.16%.
In the case of COc1ccc(C=CC(=O)NCc2cn(CC(=O)Nc3ccccc3)nn2)cc1 [Compound 9l, 3-(4-Methoxyphenyl)-N-((1-(2-oxo-2-(phenylamino)ethyl)-1H-1,2,3-triazol-4-yl)methyl)acrylamide], the “DPPH radical scavenging % Inhibition at 200 µM” value [1] is reported as 43.91 ± 4.50%.
In the case of O=C(C=Cc1ccccc1)NCc1cn(CC(=O)Nc2ccc(Cl)cc2)nn1 [Compound 9c, N-((1-(2-((4-Chlorophenyl)amino)-2-oxoethyl)-1H-1,2,3-triazol-4-yl)methyl)cinnamamide], the “DPPH radical scavenging % Inhibition at 200 µM” value [1] is reported as 36.91 ± 0.51%.
With COc1ccc(C=CC(=O)NCc2cn(CC(=O)Nc3ccc(OC)cc3)nn2)cc1 [Compound 9q, 3-(4-Methoxyphenyl)-N-((1-(2-((4-methoxyphenyl)amino)-2-oxoethyl)-1H-1,2,3-triazol-4-yl)methyl)acrylamide] the “DPPH radical scavenging % Inhibition at 200 µM” value [1] was 61.51 ± 3.74%.
For CCc1ccc(NC(=O)Cn2cc(CNC(=O)C=Cc3ccc(Cl)cc3)nn2)cc1 [Compound 9j, 3-(4-Chlorophenyl)-N-((1-(2-((4-ethylphenyl)amino)-2-oxoethyl)-1H-1,2,3-triazol-4-yl)methyl)acrylamide], the “DPPH radical scavenging % Inhibition at 200 µM” value [1] was 82.36 ± 5.91%.
In the case of COc1ccc(C=CC(=O)NCc2cn(CC(=O)Nc3ccc(Cl)cc3)nn2)cc1 [Compound 9n, N-((1-(2-((4-Chlorophenyl)amino)-2-oxoethyl)-1H-1,2,3-triazol-4-yl)methyl)-3-(4-methoxyphenyl)acrylamide], the “DPPH radical scavenging % Inhibition at 200 µM” value [1] is reported as 68.64 ± 7.33%.
For O=C(C=Cc1ccc(Cl)cc1)NCc1cn(CC(=O)Nc2ccc(F)cc2)nn1 [Compound 9g, 3-(4-Chlorophenyl)-N-((1-(2-((4-fluorophenyl)amino)-2-oxoethyl)-1H-1,2,3-triazol-4-yl)methyl)acrylamide], the “DPPH radical scavenging % Inhibition at 200 µM” value [1] was 45.73 ± 3.47%.
For O=C(C=Cc1ccccc1)NCc1cn(CC(=O)Nc2ccc(Br)cc2)nn1 [Compound 9d, N-((1-(2-((4-Bromophenyl)amino)-2-oxoethyl)-1H-1,2,3-triazol-4-yl)methyl)cinnamamide], the “DPPH radical scavenging % Inhibition at 200 µM” value [1] was 41.09 ± 4.11%.
In the case of O=c1cc(Cn2cc(Oc3ccc4ccccc4c3)nn2)occ1O [F], the IC50 (tyrosinase) is listed as 300 nM.
For CCc1ccc(NC(=O)Cn2cc(CNC(=O)C=Cc3ccc(OC)cc3)nn2)cc1 [Compound 9p, N-((1-(2-((4-Ethylphenyl)amino)-2-oxoethyl)-1H-1,2,3-triazol-4-yl)methyl)-3-(4 methoxyphenyl)acrylamide], the “DPPH radical scavenging % Inhibition at 200 µM” value [1] was 40.73 ± 5.91%.
In the case of Clc1ccc(Cn2cc(COc3ccc(-c4nc5ccccc5[nH]4)cc3)nn2)cc1Cl [E], the IC50 (tyrosinase) is given as 9420 nM.
In the case of O=C(C=Cc1ccc(Cl)cc1)NCc1cn(CC(=O)Nc2ccc(Cl)cc2)nn1 [Compound 9h, 3-(4-Chlorophenyl)-N-((1-(2-((4-chlorophenyl)amino)-2-oxoethyl)-1H-1,2,3-triazol-4-yl)methyl)acrylamide], the “DPPH radical scavenging % Inhibition at 200 µM” value [1] is reported as 22.82 ± 0.90%.
With CCc1ccc(NC(=O)Cn2cc(CNC(=O)C=Cc3ccccc3)nn2)cc1 [Compound 9e, N-((1-(2-((4-Ethylphenyl)amino)-2-oxoethyl)-1H-1,2,3-triazol-4-yl)methyl)cinnamamide] the “DPPH radical scavenging % Inhibition at 200 µM” value [1] was 47.36 ± 1.93%.
With O=C(C=Cc1ccccc1)NCc1cn(CC(=O)Nc2ccccc2)nn1 [Compound 9a, N-((1-(2-Oxo-2-(phenylamino)ethyl)-1H-1,2,3-triazol-4-yl)methyl)cinnamamide] the “DPPH radical scavenging % Inhibition at 200 µM” value [1] was 23.64 ± 4.63%.
In the case of O=C(C=Cc1ccc(Cl)cc1)NCc1cn(CC(=O)Nc2ccc(Br)cc2)nn1 [Compound 9i, N-((1-(2-((4-Bromophenyl)amino)-2-oxoethyl)-1H-1,2,3-triazol-4-yl)methyl)-3-(4-chlorophenyl)acrylamide], the Inhibition type (mushroom tyrosinase) is reported as “competitive inhibition”, the “DPPH radical scavenging % Inhibition at 200 µM” value [1] is reported as 51.82 ± 2.31% and the viability at 72 h, 100 µM ([2]; B16F10, 100 µM) is reported as greater than 80%. For the same compound, the viability at 72 h, 150 µM ([2]; B16F10, 150 µM) was 58.2 ± 3.43%, the viability at 72 h, 200 µM ([2]; B16F10, 200 µM) was 51.2 ± 4.34% and the “Cytotoxicity to B16F10 melanoma cells (in words)” value (B16F10 melanoma cells [3]) was “low cytotoxicity”. The Intracellular melanin content (B16F10 melanoma cells [4]) was 62 µg/mL.
In the case of O=C(C=Cc1ccccc1)NCc1cn(CC(=O)Nc2ccc(F)cc2)nn1 [Compound 9b, N-((1-(2-((4-Fluorophenyl)amino)-2-oxoethyl)-1H-1,2,3-triazol-4-yl)methyl)cinnamamide], the “DPPH radical scavenging % Inhibition at 200 µM” value [1] is reported as 64.18 ± 2.31%.
In the case of O=C(C=Cc1ccc(Cl)cc1)NCc1cn(CC(=O)Nc2ccccc2)nn1 [Compound 9f, 3-(4-Chlorophenyl)-N-((1-(2-oxo-2-(phenylamino)ethyl)-1H-1,2,3-triazol-4-yl)methyl)acrylamide], the “DPPH radical scavenging % Inhibition at 200 µM” value [1] is reported as 46.18 ± 1.54%.
With COc1ccc(C=CC(=O)NCc2cn(CC(=O)Nc3ccc(Br)cc3)nn2)cc1 [Compound 9o, N-((1-(2-((4-Bromophenyl)amino)-2-oxoethyl)-1H-1,2,3-triazol-4-yl)methyl)-3-(4-methoxyphenyl)acrylamide] the “DPPH radical scavenging % Inhibition at 200 µM” value [1] was 57.09 ± 6.17%.
